This data set is described as follows: recombinant barcode read abundance after kanamycin selection (control-corrected) (log10(CPM+1)); higher = more efficient recombination; sequences stand for … in AGTGCAGAGAAAATCGGCCAGTTTTCTCTGCCTGCAGTCCGCATGCCGT…AGATTTATGCAGCGGACTGCCTTTCTCCCAAAGTGATAAACCGGACAGTATCATGGACCGGTTTTCCCGGTAATCCGTATTTGCAAGGTTGGTTTCACT; site = the 11-nt target. Summed up:
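Recombination efficiency draws on barcodes counted at recombinant junctions in a pooled E. coli screen of targets paired with IS621 bridge RNA target-binding loops. The counts were converted to counts per million, averaged and corrected against the chloramphenicol/ampicillin LB agar control, then reported as log10(CPM+1). Selection plates held chloramphenicol/ampicillin/kanamycin with 0.1 mM IPTG, with two replicates per condition.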
On to “CCTGATTCTTGGGTTCTAACCTGTTGCCT (site CCTGATTCTAG)”, for which the “recombinant barcode read abundance (log10)” value was 0.322. With “CCTGGACCTTGGGTTCTAACCTGTTGCTT (site CCTGGACCTAA)”, the “recombinant barcode read abundance (log10)” value was 1.87. For the sequence “CCTGGACCTTGGGTTCTAACCTGTTGCTT (site CCTGGTCCTAT)”, the “recombinant barcode read abundance (log10)” value worked out at 0. As to “CCTGGCACTTGGGTTCTAACCTGTTGCGA (site CCTAGCACTTC)”, the “recombinant barcode read abundance (log10)” value came out at 1.45. Regarding “CCTGGCACTTGGGTTCTAACCTGTTGCGA (site CCTCGCACTTC)”, the “recombinant barcode read abundance (log10)” value stood at 0.0518. For the sequence “CCTGGCACTTGGGTTCTAACCTGTTGCGA (site CCTGGCACTTC)”, the “recombinant barcode read abundance (log10)” value is 2.37. With “CCTGGCACTTGGGTTCTAACCTGTTGCGA (site CCTTGCACTTC)”, the “recombinant barcode read abundance (log10)” value amounted to 0.0559. For the sequence “CCTGGGCCTTGGGTTCTAACCTGTTGCTT (site CCTGGACCTAC)”, the “recombinant barcode read abundance (log10)” value is 0.471.

As for “CCTGGGCCTTGGGTTCTAACCTGTTGCTT (site CCTGGGCCTAA)”, the “recombinant barcode read abundance (log10)” value amounted to 0.686. For the sequence “CCTGGGGCTTGGGTTCTAACCTGTTGCCT (site CCTGGGGCTAG)”, the “recombinant barcode read abundance (log10)” value was found to be 0.233.

For “CCTGGGGCTTGGGTTCTAACCTGTTGCCT (site CCTGGTCCTAG)”, the “recombinant barcode read abundance (log10)” value was determined as 0.189. As for “CCTGTATCTTGGGTTCTAACCTGTTGCCT (site ACTGTATCTAG)”, the “recombinant barcode read abundance (log10)” value was determined as 0.0208. Regarding “CCTGTATCTTGGGTTCTAACCTGTTGCCT (site CCTGTATCTAG)”, the “recombinant barcode read abundance (log10)” value stood at 0.127.

On to “CCTGTATCTTGGGTTCTAACCTGTTGCCT (site GCTGTATCTAG)”, for which the “recombinant barcode read abundance (log10)” value is 0.26. As to “CCTGTATCTTGGGTTCTAACCTGTTGCCT (site TCTGTATCTAG)”, the “recombinant barcode read abundance (log10)” value came out at 0.039. On to “CCTTACACTTGGGTTCTAACCTGTTGCGG (site CCTGACACTCC)”, for which the “recombinant barcode read abundance (log10)” value amounted to 0.063.

Regarding “CCTTACACTTGGGTTCTAACCTGTTGCGG (site CCTTACACTCC)”, the “recombinant barcode read abundance (log10)” value amounted to 2.53. “CCTTACCCTTGGGTTCTAACCTGTTGCCT (site CCTTACCCTAG)”: the “recombinant barcode read abundance (log10)” value is 1.11.

Consider “CCTTACCCTTGGGTTCTAACCTGTTGCCT (site CCTTAGCCTAG)”, for which the “recombinant barcode read abundance (log10)” value amounted to 0.0606. Consider “CCTTCTCCTTGGGTTCTAACCTGTTGCAT (site CCTTCTCCTAT)”, for which the “recombinant barcode read abundance (log10)” value came to 0.319. As to “CCTTCTCCTTGGGTTCTAACCTGTTGCAT (site GTACGATCTCC)”, the “recombinant barcode read abundance (log10)” value stood at 0.146. For “CCTTGCACTTGGGTTCTAACCTGTTGCGA (site CCTAGCACTTC)” the value was 0.0223. On to “CCTTGCACTTGGGTTCTAACCTGTTGCGA (site CCTCGCACTTC)”, for which the “recombinant barcode read abundance (log10)” value came out at 0.0306.

Regarding “CCTTGCACTTGGGTTCTAACCTGTTGCGA (site CCTGGCACTTC)”, the “recombinant barcode read abundance (log10)” value amounted to 0.0155. For “CCTTGCACTTGGGTTCTAACCTGTTGCGA (site CCTTGCACTTC)” the value was 0.409; for “CCTTGGGCTTGGGTTCTAACCTGTTGCTT (site CCTTGGGCTAA)”, 0.011; for “CCTTGGGCTTGGGTTCTAACCTGTTGCTT (site CTTTGGCCTAA)”, 0.305. For “CCTTGTACTTGGGTTCTAACCTGTTGCCT (site CCTTGTACTAG)” the value was 0.035; for “CCTTGTACTTGGGTTCTAACCTGTTGCCT (site CTTTGTACTAG)”, 0.0491; for “CCTTTACCTTGGGTTCTAACCTGTTGCCT (site ACTTTACCTAG)”, 0.136. Turning to “CCTTTACCTTGGGTTCTAACCTGTTGCCT (site CCTTTACCTAG)”, the “recombinant barcode read abundance (log10)” value was 0.337.

In the case of “CCTTTACCTTGGGTTCTAACCTGTTGCCT (site GCTTTACCTAG)”, the “recombinant barcode read abundance (log10)” value worked out at 0.0546.
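Also: IS621 recombinase and bridge RNA in Escherichia coli cells.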
